What was measured:
autistic children [1] = experiment: Fecal Chymotrypsin Test after secretin infusion in autistic children; type: in vivo, human
Procedure: In this experiment, 16 children diagnosed as having autism were administered the following Fecal Chymotrypsin Test in accordance with an embodiment of the invention. First, approximately 2 grams of stool were collected from each child and placed in a sterile container (although it is to be understood that any quantity of stool may be collected, as 2 grams of stool is not a required amount). Each stool sample was then analyzed using, e.g., an enzymatic photospectrometry analysis as is known by those skilled in the art, to determine the level of fecal chymotrypsin in the stool. Although the enzymatic photospectrophotometry process is preferred, any suitable conventional method may be used for measuring the fecal chymotrypsin levels. The measured chymotrypsin levels of the 16 autistic children are illustrated in FIG. 13.
After determining the chymotrypsin levels of the stools, each of these levels were compared with threshold chymotrypsin levels to determine if the child was likely to benefit from secretin administration. By way of example, with the fecal chymotrypsin tests of the stool samples being performed at 30° C., normal levels of chymotrypsin are deemed to lie above 8.4 U/gram, whereas pathologically abnormal levels are deemed to lie below 4.2 U/gram. In addition, chymotrypsin levels between 8.4 U/gram and 4.2 U/gram are considered equivocal, and further testing of the individual's fecal chymotrypsin levels over a period of time should be performed.
(§1) For each of the 16 autistic children tested, a preferred secretin infusion process according to the present invention was performed involving the administering of 1 U/kg of body weight of Secretin-Ferring for a period of nine months at intervals of approximately 6 weeks. In addition, another CARS test was administered to each of the 16 autistic children 3 weeks post secretin administration to determine if their autism had changed post infusion.
A preferred secretin infusion process includes the initial step of prepping an arm of the candidate child with an IV injection of saline. A test dose of 1 U of Secretin-Ferring is then administered to the child. Approximately one minute after infusion, the child is examined for signs of allergic reaction including rash, increased heart rate, and increase of blood pressure. […] Subsequently, each child receives a 1 U/kg of body weight infusion of Secretin-Ferring approximately every 6 weeks for 9 months. […]
In this experiment, 37 autistic children with abnormal fecal chymotrypsin levels were administered secretin over the course of 6 months using the secretin infusion process described above. Their fecal chymotrypsin (FC) levels were measured weekly using the fecal chymotrypsin test described above.

autistic children [2] = experiment: CARS (Childhood Autism Rating Scale) test pre/post secretin in autistic children; type: in vivo, human; settings: 16 autistic children
Procedure: Upon determining that a given child was likely to benefit from secretin administration based on the results of the fecal chymotrypsin test, the child was administered a CARS (Childhood Autism Rating Scale) test prior to being scheduled for secretin infusion.
as §1
A preferred secretin infusion process includes the initial step of prepping an arm of the candidate child with an IV injection of saline. A test dose of 1 U of Secretin-Ferring is then administered to the child. Approximately one minute after infusion, the child is examined for signs of allergic reaction including rash, increased heart rate, and increase of blood pressure. […] Subsequently, each child receives a 1 U/kg of body weight infusion of Secretin-Ferring approximately every 6 weeks for 9 months. It is to be understood that any commercially available form of secretin may be used.

[3] = system: children diagnosed with Autism; settings: Horvath et al. 1998; secretin given as diagnostic procedure during upper gastrointestinal endoscopy; cited from earlier work

Substance: secretin
- fecal chymotrypsin level post-secretin administration (autistic children [1]; each of 16 autistic children, approx. one week after first infusion, 1 U/kg IV Secretin-Ferring, vs pre-secretin (all abnormal)): increased
- # Autistic Children w/Equivocal FC levels (autistic children [1]; of 37 children, 6 months post-secretin, pre-secretin 0, equivocal 4.2-8.4 U/gram): 2
- # Autistic Children w/normal FC levels (autistic children [1]; of 37 children, 6 months post-secretin, pre-secretin 0, normal above 8.4 U/gram): 34
- # Autistic Children w/Abnormal FC levels (autistic children [1]; of 37 children, 6 months post-secretin, pre-secretin 37, abnormal below 4.2 U/gram): 1
- CARS component scores (except fear) (autistic children [2]; 3 weeks post secretin infusion): improvement
- CARS fear component score (autistic children [2]; 3 weeks post secretin infusion): increased
- CARS scores (overall) (autistic children [2]; approx. 3 weeks after first secretin administration, 1 U/kg IV, vs pre-secretin): overall decrease
- symptoms associated with Autism after secretin administration [3]: ameliorating the symptoms associated with Autism
